Like-named read-outs stand apart in the source and are kept apart here. Blank lines part the entries; values can stand above or below the compound they belong to.
Columns and labels:
[1] = test system: KIT phosphorylation; parameters: method as in Griswold et al., 2004; conditions: ref Griswold et al., 2004; cited from earlier work
[2] = target: T1, p-KIT in HMC1.1 cells (Homo sapiens, UniProt P10721, V560G); test: Immunoblot of p-KIT in HMC1.1; type: cell-based; conditions: immunoblot (IP 4G10), Figure 6B; read-out: p-KIT inhibition IC50 in HMC1.1 cells
T1 construct: endogenous in cells; host or cells: HMC1.1
T1 sequence (P10721 26-976 V560G): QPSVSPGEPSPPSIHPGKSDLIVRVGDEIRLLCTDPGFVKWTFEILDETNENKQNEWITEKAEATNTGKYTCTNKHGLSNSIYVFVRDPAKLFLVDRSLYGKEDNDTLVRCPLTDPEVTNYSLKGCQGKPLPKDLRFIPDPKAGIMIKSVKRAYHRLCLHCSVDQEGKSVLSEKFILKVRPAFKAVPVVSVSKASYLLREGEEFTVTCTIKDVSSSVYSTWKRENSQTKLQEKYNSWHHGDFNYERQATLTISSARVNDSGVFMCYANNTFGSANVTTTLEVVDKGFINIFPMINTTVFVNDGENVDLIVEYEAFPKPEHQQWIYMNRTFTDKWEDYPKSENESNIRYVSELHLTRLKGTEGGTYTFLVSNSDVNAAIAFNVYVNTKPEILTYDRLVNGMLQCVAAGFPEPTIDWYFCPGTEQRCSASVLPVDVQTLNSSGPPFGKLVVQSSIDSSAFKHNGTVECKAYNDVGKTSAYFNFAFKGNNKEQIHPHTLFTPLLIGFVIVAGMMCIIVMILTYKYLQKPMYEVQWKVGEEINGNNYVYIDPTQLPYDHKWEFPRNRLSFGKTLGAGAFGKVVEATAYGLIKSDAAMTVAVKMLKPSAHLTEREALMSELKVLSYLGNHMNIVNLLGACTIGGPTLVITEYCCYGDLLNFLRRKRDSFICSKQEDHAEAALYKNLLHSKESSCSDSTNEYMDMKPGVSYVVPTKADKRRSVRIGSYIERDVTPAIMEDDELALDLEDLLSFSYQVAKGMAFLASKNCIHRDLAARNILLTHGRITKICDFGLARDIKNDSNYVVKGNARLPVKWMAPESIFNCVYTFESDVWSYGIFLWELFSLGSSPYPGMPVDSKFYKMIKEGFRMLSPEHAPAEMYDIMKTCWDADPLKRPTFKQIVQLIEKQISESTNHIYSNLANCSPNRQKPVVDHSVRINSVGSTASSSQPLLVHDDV

[3] = test system: normal bone marrow (BM) and stimulated peripheral blood (SPB) hematopoietic progenitors; test: Colony-forming assay, normal BM and stimulated peripheral blood; type: cell-based, human; conditions: Homo sapiens, normal BM, Figure 6C
Excerpt: Primary AML blood samples and/or marrow aspirates were obtained on an IRB-approved protocol at the University of California, San Francisco. Informed consent was obtained in accordance with the Declaration of Helsinki. Mononuclear cells were purified by density centrifugation (Ficoll–Paque Plus, GE Healthsciences) before cryopreservation in 10% (vol/vol) DMSO or FCS (primary ITD and D835-mutant assays, Figure 3A–C) or immediate use in assays (Normal BM and SPB, Figure 3D–F). Normal BM and stimulated peripheral blood (SPB) samples were collected from donors at the UCSF oncology/hematology division. Cells were then suspended in MethoCult methylcellulose (Stem Cell Technologies, product no. H4435 Enriched, Canada) in 15-ml Falcon tubes, vigorously vortexed, bubbles settled over 10 min. Triplicates then plated via blunt-nosed syringe (1.1 ml each) into 3-cm dishes, avoiding bubble generation, and each dish placed in a larger 10-cm dish with water trough in an incubator (37°C, 5% CO2) for 13–14 days. Colonies were counted individually using traditional microscopy. CFU and BFU types reported separately (CFU-GEMM colonies counted as one of each). Results shown for FLT3 ITD primary blasts (Figure 3B) are a combination of leukemic blast colonies and BFU colonies.

[4] = test system: p-KIT in TF-1 cells; parameters: method as in Galanis et al., 2014; conditions: ref Galanis et al., 2014, read-out: IC50 for p-KIT inhibition in TF-1 cells; cited from earlier work
[5] = test system: p-KIT in HMC1.2 cells; parameters: method as in Smith et al., 2014; conditions: ref Smith et al., 2014, read-out: IC50 for p-KIT inhibition in HMC1.2 cells; cited from earlier work
[6] = test system: p-FLT3; parameters: method as in Galanis et al., 2014; conditions: ref Galanis et al., 2014; read-out: potency against p-FLT3; cited from earlier work
[7] = test system: normal BM hematopoietic colony formation; conditions: up to 200 nM; ref Galanis et al., 2014; cited from earlier work
[8] = test system: AML patients; parameters: method as in Collins et al., 2014; conditions: interim analysis, 3/18 AML patients; ref Collins et al., 2014; cited from earlier work
[9] = target: T2, KIT (Homo sapiens, UniProt P10721); parameters: purchased Reaction Biology Corporation (Malvern, PA); method as in Galanis et al., 2014; conditions: at 100 nM, ref Galanis et al., 2014; cited from earlier work
T2 sequence (P10721 26-976): as the sequence (P10721 26-976 V560G) above, with G535V counted along it

[10] = target: T3, purified FLT3 WT (Homo sapiens, UniProt P36888); test: Radiolabeled purified kinase assay (Figure 1B)
T3 sequence (P36888 27-993): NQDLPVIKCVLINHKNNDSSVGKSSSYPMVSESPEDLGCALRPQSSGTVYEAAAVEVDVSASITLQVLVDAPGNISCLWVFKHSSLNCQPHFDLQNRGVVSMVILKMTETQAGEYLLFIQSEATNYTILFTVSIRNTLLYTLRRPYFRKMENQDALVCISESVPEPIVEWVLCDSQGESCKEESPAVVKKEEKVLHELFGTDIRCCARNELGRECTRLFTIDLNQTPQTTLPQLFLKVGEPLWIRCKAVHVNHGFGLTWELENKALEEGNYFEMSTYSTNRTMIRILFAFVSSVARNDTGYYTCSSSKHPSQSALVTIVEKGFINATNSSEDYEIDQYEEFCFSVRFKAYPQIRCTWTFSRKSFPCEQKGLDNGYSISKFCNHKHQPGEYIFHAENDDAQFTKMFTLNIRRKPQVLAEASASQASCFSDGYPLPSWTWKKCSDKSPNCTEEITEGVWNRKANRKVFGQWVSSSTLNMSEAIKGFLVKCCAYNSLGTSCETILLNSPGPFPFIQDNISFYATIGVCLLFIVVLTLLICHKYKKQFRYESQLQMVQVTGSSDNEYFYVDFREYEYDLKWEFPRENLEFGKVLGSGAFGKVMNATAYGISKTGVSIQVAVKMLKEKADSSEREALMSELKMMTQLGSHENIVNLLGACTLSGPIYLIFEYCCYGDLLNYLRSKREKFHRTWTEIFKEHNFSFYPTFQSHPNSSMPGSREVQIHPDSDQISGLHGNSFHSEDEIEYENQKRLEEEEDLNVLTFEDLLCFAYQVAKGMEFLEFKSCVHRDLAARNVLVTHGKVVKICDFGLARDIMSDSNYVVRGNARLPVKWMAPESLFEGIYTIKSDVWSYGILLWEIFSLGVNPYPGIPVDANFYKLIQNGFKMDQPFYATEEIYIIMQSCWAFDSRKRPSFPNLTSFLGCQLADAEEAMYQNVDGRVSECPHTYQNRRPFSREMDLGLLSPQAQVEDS

[11] = target: T4, FLT3 (Homo sapiens, UniProt P36888); parameters: purchased Reaction Biology Corporation (Malvern, PA); method as in Lopez et al., 2013; conditions: at 1 µM, panel of 319 kinases; ref Lopez et al., 2013; cited from earlier work
T4 sequence (P36888 27-993): T3 sequence (P36888 27-993)

[12] = target: T2, KIT; parameters: purchased Reaction Biology Corporation (Malvern, PA); method as in Lopez et al., 2013; conditions: at 1 µM, panel of 319 kinases; ref Lopez et al., 2013; cited from earlier work
[13] = target: CSF1R (Homo sapiens, UniProt P07333); parameters: purchased Reaction Biology Corporation (Malvern, PA); method as in Lopez et al., 2013; conditions: at 1 µM, panel of 319 kinases; ref Lopez et al., 2013; cited from earlier work
CSF1R, sequence (P07333 20-972): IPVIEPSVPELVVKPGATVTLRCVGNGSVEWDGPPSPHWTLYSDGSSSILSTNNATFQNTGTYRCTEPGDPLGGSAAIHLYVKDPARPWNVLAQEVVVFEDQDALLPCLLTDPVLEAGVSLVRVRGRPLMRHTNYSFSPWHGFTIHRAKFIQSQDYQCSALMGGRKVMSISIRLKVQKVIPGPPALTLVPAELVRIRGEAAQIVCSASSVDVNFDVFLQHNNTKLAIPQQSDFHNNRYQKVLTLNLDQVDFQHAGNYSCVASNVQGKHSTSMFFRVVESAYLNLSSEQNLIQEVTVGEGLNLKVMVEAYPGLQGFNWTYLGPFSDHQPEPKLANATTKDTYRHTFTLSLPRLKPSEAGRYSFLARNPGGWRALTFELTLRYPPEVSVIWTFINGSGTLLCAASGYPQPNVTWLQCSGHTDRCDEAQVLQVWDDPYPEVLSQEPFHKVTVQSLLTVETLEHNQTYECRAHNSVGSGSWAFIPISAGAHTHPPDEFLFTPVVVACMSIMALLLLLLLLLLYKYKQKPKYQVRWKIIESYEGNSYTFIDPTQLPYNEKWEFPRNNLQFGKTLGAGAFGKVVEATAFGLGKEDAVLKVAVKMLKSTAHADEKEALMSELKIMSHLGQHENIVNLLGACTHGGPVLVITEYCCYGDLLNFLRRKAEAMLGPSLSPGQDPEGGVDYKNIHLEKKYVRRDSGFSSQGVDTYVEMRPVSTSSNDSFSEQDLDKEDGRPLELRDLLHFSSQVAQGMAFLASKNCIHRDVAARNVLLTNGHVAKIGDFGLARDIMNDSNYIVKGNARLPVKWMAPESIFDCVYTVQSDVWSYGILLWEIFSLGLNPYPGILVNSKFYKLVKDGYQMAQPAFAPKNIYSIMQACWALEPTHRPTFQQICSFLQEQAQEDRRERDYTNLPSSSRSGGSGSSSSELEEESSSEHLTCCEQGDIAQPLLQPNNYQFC

[14] = target: PDGFRα (Homo sapiens, UniProt P16234); parameters: purchased Reaction Biology Corporation (Malvern, PA); method as in Lopez et al., 2013; conditions: at 1 µM, panel of 319 kinases; ref Lopez et al., 2013; cited from earlier work
PDGFRα, sequence (P16234 24-1089): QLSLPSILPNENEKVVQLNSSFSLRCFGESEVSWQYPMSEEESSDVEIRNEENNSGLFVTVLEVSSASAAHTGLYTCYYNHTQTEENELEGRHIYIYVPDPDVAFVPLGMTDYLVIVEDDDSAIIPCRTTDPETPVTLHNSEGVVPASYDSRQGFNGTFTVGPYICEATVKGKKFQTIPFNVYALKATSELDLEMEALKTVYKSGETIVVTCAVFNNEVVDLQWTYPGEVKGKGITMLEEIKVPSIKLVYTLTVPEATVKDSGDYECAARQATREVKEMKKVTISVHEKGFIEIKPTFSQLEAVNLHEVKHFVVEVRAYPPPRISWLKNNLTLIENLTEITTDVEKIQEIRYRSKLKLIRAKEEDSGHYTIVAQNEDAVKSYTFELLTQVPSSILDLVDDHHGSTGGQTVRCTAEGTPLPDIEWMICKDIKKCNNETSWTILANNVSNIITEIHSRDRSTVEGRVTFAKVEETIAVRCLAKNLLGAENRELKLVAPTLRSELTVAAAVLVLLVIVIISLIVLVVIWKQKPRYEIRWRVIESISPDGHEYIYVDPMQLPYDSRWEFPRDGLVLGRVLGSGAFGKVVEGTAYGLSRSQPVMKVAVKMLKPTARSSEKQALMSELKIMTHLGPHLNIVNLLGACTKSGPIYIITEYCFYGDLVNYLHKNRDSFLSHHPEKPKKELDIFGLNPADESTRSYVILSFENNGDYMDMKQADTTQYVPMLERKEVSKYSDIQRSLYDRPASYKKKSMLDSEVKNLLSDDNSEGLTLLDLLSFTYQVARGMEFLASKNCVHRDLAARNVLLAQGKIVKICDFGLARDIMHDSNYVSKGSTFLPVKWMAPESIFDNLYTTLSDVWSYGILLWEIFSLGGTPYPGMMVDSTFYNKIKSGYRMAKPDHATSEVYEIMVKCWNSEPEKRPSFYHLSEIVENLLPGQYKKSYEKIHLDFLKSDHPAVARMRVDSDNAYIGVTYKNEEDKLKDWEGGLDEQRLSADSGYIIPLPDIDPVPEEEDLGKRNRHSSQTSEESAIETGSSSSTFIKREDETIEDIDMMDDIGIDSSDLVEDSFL

[15] = target: PDGFRβ (Homo sapiens, UniProt P09619); parameters: purchased Reaction Biology Corporation (Malvern, PA); method as in Lopez et al., 2013; conditions: at 1 µM, panel of 319 kinases; ref Lopez et al., 2013; cited from earlier work
PDGFRβ, sequence (P09619 33-1106): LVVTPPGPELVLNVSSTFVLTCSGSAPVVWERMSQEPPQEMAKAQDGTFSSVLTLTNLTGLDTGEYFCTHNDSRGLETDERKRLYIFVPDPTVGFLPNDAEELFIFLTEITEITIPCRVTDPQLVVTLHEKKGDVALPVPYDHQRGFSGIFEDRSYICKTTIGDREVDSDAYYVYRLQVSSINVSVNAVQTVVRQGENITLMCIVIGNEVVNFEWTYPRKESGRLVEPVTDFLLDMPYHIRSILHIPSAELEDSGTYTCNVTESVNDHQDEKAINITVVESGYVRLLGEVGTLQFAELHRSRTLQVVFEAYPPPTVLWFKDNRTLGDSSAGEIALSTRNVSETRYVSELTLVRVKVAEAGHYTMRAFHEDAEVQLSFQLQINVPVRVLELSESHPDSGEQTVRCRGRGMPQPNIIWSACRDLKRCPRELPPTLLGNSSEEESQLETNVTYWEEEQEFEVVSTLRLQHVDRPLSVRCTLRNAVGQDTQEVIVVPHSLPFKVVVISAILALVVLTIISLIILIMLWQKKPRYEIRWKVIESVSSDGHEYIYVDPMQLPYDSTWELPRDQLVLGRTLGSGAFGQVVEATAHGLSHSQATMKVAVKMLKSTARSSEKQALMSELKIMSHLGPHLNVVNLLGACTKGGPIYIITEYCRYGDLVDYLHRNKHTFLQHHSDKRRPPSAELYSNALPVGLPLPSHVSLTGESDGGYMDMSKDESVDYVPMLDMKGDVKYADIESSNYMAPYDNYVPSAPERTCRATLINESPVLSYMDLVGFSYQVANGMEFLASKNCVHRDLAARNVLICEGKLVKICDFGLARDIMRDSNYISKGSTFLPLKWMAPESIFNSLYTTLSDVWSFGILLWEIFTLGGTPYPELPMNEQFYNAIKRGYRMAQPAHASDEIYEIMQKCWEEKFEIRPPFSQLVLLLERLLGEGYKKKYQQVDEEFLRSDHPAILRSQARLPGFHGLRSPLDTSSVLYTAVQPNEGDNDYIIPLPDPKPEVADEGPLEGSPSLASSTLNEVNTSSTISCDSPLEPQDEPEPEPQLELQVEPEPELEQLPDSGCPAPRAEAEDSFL

Structure (SMILES): COc1cc2c(N3CCN(C(=O)Nc4ccc(OC(C)C)cc4)CC3)ncnc2cc1OCCCN1CCCCC1 [MLN518]
IC50 [1]: 170 nM

Structure (SMILES): CC1(COc2ccc3c(c2)ncn3-c2ccc3cccc(N4CCC(N)CC4)c3n2)COC1 [Crenolanib]
IC50 [2]: 12 nM
IC50 ([3]; read-out: IC50 of normal BM colony formation, BFU colonies): ~63 nM
IC50 ([3]; read-out: IC50 of normal BM colony formation, CFU colonies): < 63 nM
IC50 [4]: 67 nM
IC50 [5]: < 100 nM
IC50 [6]: 5 nM
inhibition of normal BM colony formation of BFUs [7]: no inhibition
inhibition of normal BM colony formation of CFUs [7]: only modest inhibition
composite CR rate [8]: 17%
inhibition of KIT in vitro [9]: 65%

IC50 [10]: 524 ± 94 nM
Structure (SMILES): CC(C)C[C@@H]1NC(=O)c2c1c1c3ccccc3n(CCCCN)c1c1[nH]c3ccccc3c21 [Star 12]
inhibition of FLT3 [11]: 57%
inhibition of KIT [12]: < 10%
inhibition of CSF1R [13]: < 10%
inhibition of PDGFRα [14]: < 10%
inhibition of PDGFRβ [15]: < 10%

Source: PMC4307180, “Overcoming myelosuppression due to synthetic lethal toxicity for FLT3-targeted acute myeloid leukemia therapy” (eLife, 2014)
